This is an account of results in patent publication US9266834B2, “1, 4-disubstituted 3-cyano-pyridone derivatives and their use as positive allosteric modulators of MGLUR2-receptors” (JANSSEN PHARMACEUTICALS, INC., priority 2006, dated 2016).

For the assay, the target named is T1, human mGluR2 receptor (Homo sapiens, UniProt Q14416).
T1 construct: expressed in transfected cells; host or cells: CHO cells (membrane preparation)
T1 sequence (Q14416 19-872): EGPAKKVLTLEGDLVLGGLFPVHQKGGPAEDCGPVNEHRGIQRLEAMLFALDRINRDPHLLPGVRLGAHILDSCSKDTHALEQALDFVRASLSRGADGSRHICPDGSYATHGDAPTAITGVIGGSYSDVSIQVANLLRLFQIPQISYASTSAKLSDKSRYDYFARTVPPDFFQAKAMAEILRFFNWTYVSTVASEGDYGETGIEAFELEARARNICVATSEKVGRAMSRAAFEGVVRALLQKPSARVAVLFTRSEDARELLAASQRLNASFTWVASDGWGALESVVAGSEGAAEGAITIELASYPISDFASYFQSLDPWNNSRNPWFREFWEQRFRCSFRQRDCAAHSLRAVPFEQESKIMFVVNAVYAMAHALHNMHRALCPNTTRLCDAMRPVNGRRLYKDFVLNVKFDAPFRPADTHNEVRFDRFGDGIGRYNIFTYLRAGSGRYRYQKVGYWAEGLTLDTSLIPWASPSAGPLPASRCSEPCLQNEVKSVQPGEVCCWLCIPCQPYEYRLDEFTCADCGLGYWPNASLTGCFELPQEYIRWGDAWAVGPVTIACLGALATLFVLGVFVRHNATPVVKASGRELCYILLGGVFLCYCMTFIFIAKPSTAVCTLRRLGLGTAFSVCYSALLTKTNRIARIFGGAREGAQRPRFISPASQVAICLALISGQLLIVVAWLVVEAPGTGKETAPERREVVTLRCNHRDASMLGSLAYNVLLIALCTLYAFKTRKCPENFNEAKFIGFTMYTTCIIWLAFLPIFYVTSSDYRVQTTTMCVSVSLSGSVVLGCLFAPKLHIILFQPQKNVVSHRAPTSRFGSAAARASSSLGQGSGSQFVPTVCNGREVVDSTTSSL
Description: [35S]GTPγS binding assay (GTPγS-PAM): positive allosteric modulation in presence of glutamate at EC25, membranes from transfected CHO cells. Format: biochemical. The conditions noted are these: in presence of mGluR2 agonist glutamate at predetermined EC25 concentration, averages of duplicate values of 11-concentration response curves, read-out: GTPgS - hR2 PAM pEC50 (converted). The method, boiled down:
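Potentiation was read as filter-retained [35S]GTPγS (0.1 nM final, 30 min, 30° C.) after a 30 min, 30° C. preincubation of human mGluR2 CHO membranes (15 μg/well) with EC25 glutamate and 11 modulator concentrations spanning 0.3 nM-50 μM. The buffer was 50 mM HEPES pH 7.4, NaCl, MgCl2, 50 μM GDP and saponin. Cold 10 μM GTP defined nonspecific binding; data were fitted by a four-parameter logistic.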
With `N#Cc1c(N2CCN(Cc3ccccc3)CC2)ccn(Cc2ccc(OC(F)(F)F)cc2)c1=O` [2-042], the EC50 was 0.631 µM.

On to `CC1CN(Cc2cc(F)cc(F)c2)CCN1c1ccn(Cc2ccc(OC(F)(F)F)cc2)c(=O)c1C#N` (stereo not drawn) [2-045], for which the EC50 was 0.501 µM. Then `N#Cc1c(N2CCN(Cc3ccncc3)CC2)ccn(Cc2ccc(OC(F)(F)F)cc2)c1=O` [2-047], with 5.01 µM; and `N#Cc1c(N2CCN(Cc3ccccc3)CC2)ccn(Cc2ccc(F)cc2)c1=O` [2-049], with 1.58 µM. Then `N#Cc1c(N2CCN(Cc3cccc(F)c3)CC2)ccn(Cc2ccc(F)cc2)c1=O` [2-050], with 2.51 µM. The value for `N#Cc1c(N2CCN(Cc3cc(F)cc(F)c3)CC2)ccn(Cc2ccc(F)cc2)c1=O` [2-052] was 3.98 µM. Regarding `N#Cc1c(N2CCN(Cc3ccccc3)CC2)ccn(CCOc2ccccc2)c1=O` [2-053], the EC50 is 0.631 µM. The value for `N#Cc1c(N2CCN(Cc3ccccc3)CC2)ccn(CCOCc2ccccc2)c1=O` [2-054] was 5.01 µM; that for `N#Cc1c(N2CCN(c3ccccn3)CC2)ccn(Cc2ccc(F)cc2)c1=O` [2-055] was 3.98 µM; that for `CCCCn1ccc(OC2CCN(Cc3cccc(C(F)(F)F)c3)CC2)c(C#N)c1=O` [3-002] was 1.26 µM. Then `CC(C)CCn1ccc(OC2CCN(Cc3cccc(C(F)(F)F)c3)CC2)c(C#N)c1=O` [3-008], with 0.316 µM; and `N#Cc1c(OC2CCN(Cc3cccc(C(F)(F)F)c3)CC2)ccn(CC2CC2)c1=O` [3-012], with 1.26 µM. `CC(C)CCn1ccc(C2CCN(Cc3cccc(C(F)(F)F)c3)CC2)c(C#N)c1=O` [3-014]: the EC50 is 0.2 µM. For the compound `CCCCn1ccc(N2CCC(c3ccccn3)CC2)c(C#N)c1=O` [4-001], the EC50 was 2 µM.

With `CCCCn1ccc(N2CCC(c3cccnc3)CC2)c(C#N)c1=O` [4-002], the EC50 is 3.98 µM. Then `CCCCn1ccc(N2CCC(Oc3ccccn3)CC2)c(C#N)c1=O` [4-005], with 0.501 µM; and `CCCCn1ccc(N2CCC(COc3ccccn3)CC2)c(C#N)c1=O` [4-006], with 0.501 µM; and `CCCCn1ccc(N2CCC(COc3cccnc3)CC2)c(C#N)c1=O` [4-007], with 1.58 µM. Then `CCCCn1ccc(N2CCC(CCOc3cccnc3)CC2)c(C#N)c1=O` [4-008], with 1.58 µM; and `CCCCn1ccc(N2CCC(Oc3ccc(C#N)cc3)CC2)c(C#N)c1=O` [4-009], with 0.501 µM.

As to `CC(C)CCn1ccc(N2CCC(C(F)(F)F)CC2)c(C#N)c1=O` [4-010], the EC50 was 2 µM. As for `CC(C)CCn1ccc(N2CCCC(c3ccccc3)C2)c(C#N)c1=O` (stereo not drawn) [4-013], the EC50 was 2 µM. The value for `CC(C)CCn1ccc(N2CCC(c3ccccc3)CC2)c(C#N)c1=O` [4-014] was 0.0631 µM; that for `CC(C)CCn1ccc(N2CCC(Cc3ccccc3)CC2)c(C#N)c1=O` [4-015] was 0.1 µM. Then `Cc1ccc(OC2CCN(c3ccn(CCC(C)C)c(=O)c3C#N)CC2)cc1` [4-017], with 0.126 µM. The value for `CC(C)CCn1ccc(N2CCC(Oc3ccc(F)cc3)CC2)c(C#N)c1=O` [4-018] was 0.501 µM. Regarding `CC(C)CCn1ccc(N2CCC(OCc3cccc(C(F)(F)F)c3)CC2)c(C#N)c1=O` [4-020], the EC50 was 0.126 µM.

Turning to `CCOc1ccccc1OC1CCN(c2ccn(CCC(C)C)c(=O)c2C#N)CC1` [4-021], the EC50 was 0.2 µM. As to `CC(C)CCn1ccc(N2CCC(OCc3ccc(OC(F)(F)F)cc3)CC2)c(C#N)c1=O` [4-022], the EC50 was 0.0501 µM. Then `CC(C)CCn1ccc(N2CCCC(Nc3ccccc3)C2)c(C#N)c1=O` (stereo not drawn) [4-023], with 5.01 µM; and `CC(C)CCn1ccc(N2CCC(NCc3cccc(C(F)(F)F)c3)CC2)c(C#N)c1=O` [4-024], with 6.31 µM; and `CC(C)CCn1ccc(N2CCC(N(C)Cc3ccccc3)CC2)c(C#N)c1=O` [4-026], with 1.58 µM. With `CC(C)CCn1ccc(N2CCC(N(C)Cc3cccc(C(F)(F)F)c3)CC2)c(C#N)c1=O` [4-028], the EC50 was 0.1 µM.
